Reference: paper PMC11901700, “A Sweet Almond Globulin Multifunctional Peptide: Identification, In Silico Screening, Restraint Mechanisms to Keap1 and ACE, and Antihypertensive and Ferrous Transport Efficiency” (Nutrients, 2025)
Where no end group is shown, it is not given here.

Experiments:
Caco-2 cells = assay: Iron transmembrane absorption across Caco-2 cell monolayers; type: in vitro ADME; settings: chelate 320 μg/mL, p < 0.05
Method: In a 24-well Transwell culture plate, Caco-2 cells (0.75 × 10^6 cells/cm^2) were cultivated using Dulbecco’s modified Eagle’s medium that contained fetal bovine serum (20 g/L), streptomycin (1 μg/μL), penicillin (1 μg/μL), and neomycin (1 μg/μL), and it was refreshed every 48 h. After 12–14 d of incubation at 5% CO2 and 37 °C, the transepithelial electrical resistance was more than 400 Ω·cm^2, and a monolayer Caco-2 cell mode was formed. Afterwards, the medium was removed, and Hank’s Balanced Salt Solution was added. After 30 min of cultivation at 5% CO2 and 37 °C, Hank’s Balanced Salt Solution was removed from the apical side, and SAGH peptide–ferrous chelates (320 μg/mL) were added and then cultivated at 5% CO2 and 37 °C for 150 min. Every 30 min, the ferrous amount of the basolateral-side cultivate solution was measured using the o-phenanthroline method.

ACE (from rabbit lungs) = target: T1, ACE (from rabbit lungs) (Oryctolagus cuniculus, UniProt P12822); assay: ACE inhibitory kinetics (Lineweaver–Burk plot); type: biochemical; settings: HHL 0.13–1.32 mmol/L as substrate, N = 3
T1 construct: ACE (0.1 U, from rabbit lungs, purity > 99.7%, CAS: 9015-82-1) was obtained from Sigma-Aldrich; purchased Sigma-Aldrich (St. Louis, MO, USA); host or cells: rabbit lung tissue
T1 sequence (P12822 34-1310): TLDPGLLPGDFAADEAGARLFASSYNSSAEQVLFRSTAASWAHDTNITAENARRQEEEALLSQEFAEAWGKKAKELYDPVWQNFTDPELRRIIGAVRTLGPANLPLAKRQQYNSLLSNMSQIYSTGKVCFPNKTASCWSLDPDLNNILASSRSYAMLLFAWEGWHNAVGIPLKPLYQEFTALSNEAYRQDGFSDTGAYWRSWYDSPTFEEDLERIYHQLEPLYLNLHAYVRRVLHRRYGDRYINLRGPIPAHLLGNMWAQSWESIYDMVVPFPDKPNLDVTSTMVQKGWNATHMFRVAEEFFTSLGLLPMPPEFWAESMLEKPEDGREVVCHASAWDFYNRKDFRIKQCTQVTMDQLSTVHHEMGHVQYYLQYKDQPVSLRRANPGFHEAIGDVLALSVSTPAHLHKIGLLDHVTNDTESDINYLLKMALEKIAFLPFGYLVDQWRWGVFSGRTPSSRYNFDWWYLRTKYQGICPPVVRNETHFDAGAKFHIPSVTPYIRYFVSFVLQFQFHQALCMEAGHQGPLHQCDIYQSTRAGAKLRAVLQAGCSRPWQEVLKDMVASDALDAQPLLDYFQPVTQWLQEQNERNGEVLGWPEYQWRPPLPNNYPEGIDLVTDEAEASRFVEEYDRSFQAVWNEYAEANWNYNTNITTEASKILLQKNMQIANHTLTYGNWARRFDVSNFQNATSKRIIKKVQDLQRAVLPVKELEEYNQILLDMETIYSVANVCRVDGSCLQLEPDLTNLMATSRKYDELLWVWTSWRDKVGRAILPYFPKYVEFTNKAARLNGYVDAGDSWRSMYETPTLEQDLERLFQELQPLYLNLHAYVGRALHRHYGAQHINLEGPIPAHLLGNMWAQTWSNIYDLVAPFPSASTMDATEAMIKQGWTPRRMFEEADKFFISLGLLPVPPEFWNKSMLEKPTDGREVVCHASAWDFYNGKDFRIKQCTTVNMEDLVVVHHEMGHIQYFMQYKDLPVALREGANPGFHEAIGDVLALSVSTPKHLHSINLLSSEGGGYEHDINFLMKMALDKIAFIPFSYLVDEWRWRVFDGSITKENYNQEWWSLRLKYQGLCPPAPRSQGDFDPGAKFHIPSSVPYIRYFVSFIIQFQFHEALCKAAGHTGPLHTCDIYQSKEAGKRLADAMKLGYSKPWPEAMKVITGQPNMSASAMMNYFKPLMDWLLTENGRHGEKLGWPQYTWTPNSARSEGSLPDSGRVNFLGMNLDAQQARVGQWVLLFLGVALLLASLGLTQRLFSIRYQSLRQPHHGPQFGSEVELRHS
From the text: The hippuric acid method was used to measure the samples’ inhibitory ability towards ACE, following the same procedures as Zheng et al.. The absorbance at 228 nm was the hippuric acid content and represented ACE activity; therefore, the inhibitory ability of samples towards ACE was defined as the percentage of reduction in the absorption at 228 nm between the control and sample groups. Moreover, the ACE inhibitory kinetic of SAGH peptides was investigated by employing a Lineweaver–Burk plot with N-hippuryl-L-histidyl-L-leucine (HHL, 0.13–1.32 mmol/L) as the substrate.

ABTS+ quenching ability = type: physicochemical; settings: at 100 μg/mL; absorbance at 734 nm; mean ± standard error
Method: The ABTS^+ quenching ability was determined following the same procedures described by Vásquez et al.. The same system without the sample was the control, and glutathione (0.1 mg/mL) was the comparison. The percentage of reduction in absorbance at 734 nm was defined as the ABTS^+ scavenging ability of samples.

[1] = Superoxide radical scavenging activity (pyrogallol auto-oxidation method); type: physicochemical; settings: at 100 μg/mL
Method: (§1) As described by Wang et al. and Vásquez et al., the hydroxyl (·OH) and superoxide ( O2−· ) radicals’ scavenging activity was measured using the β-deoxyribose oxidation and pyrogallol auto-oxidation methods, respectively. The comparison was conducted when the samples were replaced by glutathione (0.1 mg/mL).

[2] = Hydroxyl radical scavenging activity (β-deoxyribose oxidation method); type: physicochemical; settings: at 100 μg/mL
Method: as §1

[3] = Reducing power (potassium ferricyanide method); type: physicochemical; settings: at 100 μg/mL, absorbance at 700 nm
From the text: The potassium ferricyanide method was employed to determine the reducing power of the SAGH peptides at the same conditions reported by Wang et al., where the absorbance at 700 nm represented the reducing power.

[4] = listed as PMYGGGMV–ferrous chelates

PMYGGGMV–ferrous chelate: chelate prepared by reacting the peptide with FeCl2 at pH 6.5 (also: ferrous iron chelate (reaction with FeCl2))
ability to improve ferrous transmembrane absorption (Caco-2 cells; Caco-2 monolayer, Transwell, TEER > 400 Ω·cm2, apical to basolateral, comparators 0.3 mg/mL, HBSS, 37 °C, 5% CO2, 150 min, o-phenanthroline every 30 min, N = 3): greater than that of ferrous chloride
iron transport across the Caco-2 monolayer compared with ferrous lactate (Caco-2 cells; during 120–150 min, apical to basolateral, ferrous lactate 0.3 mg/mL): better
ACE inhibition mode (ACE (from rabbit lungs)): increased the Km value of the Michaelis–Menten kinetic curves but did not change the Vmax
ABTS+ Scavenging Activity (%) Before Gastrointestinal Digestion (ABTS+ quenching ability): 35.27 ± 2.45 d %
Superoxide Radical Scavenging Ability (%) Before Gastrointestinal Digestion [1]: 75.49 ± 4.09 b %
Superoxide Radical Scavenging Ability (%) Before Gastrointestinal Digestion [1, 4]: 75.49%
·OH Scavenging Activity (%) Before Gastrointestinal Digestion [2]: 57.69 ± 0.07 d %
·OH Scavenging Activity (%) Before Gastrointestinal Digestion [2, 4]: 60.04%
Reducing Power Before Gastrointestinal Digestion [3]: 0.179 ± 0.003 e
Reducing Power Before Gastrointestinal Digestion [3, 4]: 0.179
